Results published in ChEMBL document CHEMBL4007480, “Synthesis of novel 1,2,4-triazine scaffold as FAK inhibitors with antitumor activity” (Bioorg Med Chem Lett, 2017).
pIC50: −log10 of the molar value.

Legend:
U-87 MG [1] = assay: Cytotoxicity against human U87MG cells assessed as reduction in cell viability by WST1 assay
U-87 MG [2] = assay: Inhibition of colony formation in human U87MG cells
HCT-116 [3] = assay: Cytotoxicity against human HCT116 cells assessed as reduction in cell viability by WST1 assay
HCT-116 [4] = assay: Inhibition of colony formation in human HCT116 cells
U-87 MG [5] = details: Homo sapiens; U-87MG ATCC

Structure (SMILES)	pIC50 (U-87 MG [2])	pIC50 (HCT-116 [4])	pIC50 (U-87 MG [1])	pIC50 (HCT-116 [3])	inhibition (U-87 MG [5])
CNC(=O)c1ccccc1Nc1nc(Nc2ccc(CN)cc2)nnc1Cl	7.85	5.96	5.62	5.74	Dose-dependent effect
CNC(=O)c1ccccc1Nc1nc(Nc2cc(C)c(Cl)cc2OC)nnc1Cl	6.30	5.35	5.04	5.24	Dose-dependent effect
CNC(=O)c1ccccc1Nc1nc(Nc2ccc(N3CCOCC3)cc2OC)nnc1Cl	5.82	6.00	4.88	6.72	Dose-dependent effect
COc1cc(Nc2nnc(Cl)c(Nc3cccc(NS(C)(=O)=O)c3)n2)cc(OC)c1OC	7.15	7.22	4.90	4.83	Dose-dependent effect
CNC(=O)c1ccccc1Nc1nc(Nc2ccc(N3CCOCC3)cc2)nnc1Cl	6.15	5.77	5.00	6.30	Dose-dependent effect

Continued by rising pIC50 (U-87 MG [2]), values first:

pIC50 (U-87 MG [2])	pIC50 (HCT-116 [4])	Structure (SMILES)	pIC50 (U-87 MG [1])	pIC50 (HCT-116 [3])	inhibition (U-87 MG [5])
5.77	5.68	CNC(=O)c1ccccc1Nc1nc(Nc2cc(OC)c(OC)c(OC)c2)nnc1Cl	4.77	4.83	Dose-dependent effect
6.77	6.57	CNC(=O)c1ccccc1Nc1nc(Nc2ccc(N3CCOCC3)cc2OC)ncc1Cl	5.89	6.41	
